Source: patent US5130120A, “Paramagnetic DTPA and EDTA alkoxyalkylamide complexes as MRI agents” (Mallinckrodt Medical, Inc., priority 1988, dated 1992)

Assays:
ICR mice = assay: acute intravenous toxicity (LD50) in ICR mice, 7-day observation; format: in vivo; conditions: for Deaths, Delayed (1-24 hr) / Deaths, Delayed (1-7 days) / Deaths, Immediate (0-1 hr) / Deaths, Total / Body Weight Change: 0.68 M; for Deaths, Total: deaths/animals
Description: The acute intravenous toxicity of the compound of Example II was determined as follows: ICR mice, at 1 to 4 per dose level, received single intravenous injections of the test substance via a lateral tail vein at the rate of approximately 1 ml/minute. The test substances were at concentrations chosen to result in dose volumes of 5 to 75 ml/kg body weight. Dosing began at a volume of 10 ml/kg. Dose adjustments up or down were made to closely bracket the estimated LD50 with 4 animals per group (2 males and 2 females). Observations of the mice were recorded at times 0, 0.5, 1,2,4 and 24 hours and once daily thereafter for up to 7 days post injection. On the 7th day post injection, the mice were euthanized, weighed and necropsied. Abnormal tissues were noted. At this time a decision was made as to whether any histopathology was to be performed and whether or not the tissues should be retained. Necropsies were also performed on mice expiring after 24 hours post-injection, except for dead mice found on the weekends. The LD50 values, along with 95% CI were calculated using a modified Behrens-Reed-Meunch method. The results for the complex of Example II are reported below:
Sex and Weight Range of Mice: Males(18.0-20.3 g) Females (19.0-21.7 g).

[1] = T1 and T2 relaxivity, RADX (10 megahertz) NMR analyzer, 37° C.; format: physicochemical
Description: T1 and T2 relaxivity curves of the complex of Example II were obtained using a RADX (10 megahertz) NMR analyzer. The RADX analyzer was thermally stabilized at 37° C. before performing any T1 or T2 measurements. Overall range tuning and mid-range calibration were performed on a 37° C. warmed T1 standard at the beginning of the experiment, according to manufacturer's instructions. Subsequent to calibration, T1 standards were tested to verify calibration and linearity.
Ten millimolar solutions of the complex were prepared in sterile water for injection ("SWFI") and in 4% human serum albumin ("HSA")/0.9% NaCl. A series of lower concentrations (0.25, 0.50, 1.0, 2.5 and 5.0 mM) were prepared to form a concentration curve. A sample of each prepared concentration was warmed to 37° C. in an NMR sample tube prior to assay. Triplicate T1 and T2 values were obtained on each dilution.
Separate linear regressions were determined using the reciprocal T1 and T2 mean values for the complex diluted in SWFI and 4% HSA. The relaxivity curves were generated by plotting the reciprocal T1 or T2 value against concentration. The following relaxation rates were determined for the complex of Example II: […]

solubility in water = format: physicochemical; conditions: glassy solid
Description: A 15% excess of the bis(2-methoxyethylamide) of EDTA produced by the procedure described in Example XI (1.1 g, 0.0026 mol) was dissolved in water (10 ml) and MnCO3 (0.27 g, 0.0023 mol) was added. Upon warming for 30 minutes, the solution became homogeneous. The solution was taken to dryness under reduced pressure.

COCCNC(=O)CN(CCN(CCN(CC(=O)[O-])CC(=O)NCCOC)CC(=O)[O-])CC(=O)[O-].[Gd+3] [Example II, {N,N"-Bis[N-(2-methoxyethyl)-carbamoylmethyl]diethylenetriamine-N,N',N"-triaceto}gadolinium (III)]
Deaths, Delayed (1-24 hr) (ICR mice; 6.8 mmol/kg i.v., ICR mice): 0 | Deaths, Delayed (1-7 days) (ICR mice; 6.8 mmol/kg i.v., ICR mice): 0 | Deaths, Immediate (0-1 hr) (ICR mice; 6.8 mmol/kg i.v., ICR mice): 0 | Deaths, Total (ICR mice; 6.8 mmol/kg i.v., ICR mice): 0/2 | Body Weight Change (ICR mice; 6.8 mmol/kg i.v., female ICR mice): +2.1 g | Body Weight Change (ICR mice; 6.8 mmol/kg i.v., male ICR mice): -1.1 g | Deaths, Delayed (1-24 hr) (ICR mice; 13.6 mmol/kg i.v., ICR mice): 0 | Deaths, Delayed (1-7 days) (ICR mice; 13.6 mmol/kg i.v., ICR mice): 0 | Deaths, Immediate (0-1 hr) (ICR mice; 13.6 mmol/kg i.v., ICR mice): 0 | Deaths, Total (ICR mice; 13.6 mmol/kg i.v., ICR mice): 0/2 | Body Weight Change (ICR mice; 13.6 mmol/kg i.v., female ICR mice): +1.4 g | Body Weight Change (ICR mice; 13.6 mmol/kg i.v., male ICR mice): +1.6 g | Deaths, Delayed (1-24 hr) (ICR mice; 20.4 mmol/kg i.v., ICR mice): 0 | Deaths, Delayed (1-7 days) (ICR mice; 20.4 mmol/kg i.v., ICR mice): 0 | Deaths, Immediate (0-1 hr) (ICR mice; 20.4 mmol/kg i.v., ICR mice): 1 | Deaths, Total (ICR mice; 20.4 mmol/kg i.v., ICR mice): 1/4 | Body Weight Change (ICR mice; 20.4 mmol/kg i.v., female ICR mice): -3.2 g | Body Weight Change (ICR mice; 20.4 mmol/kg i.v., male ICR mice): -1.1 g | Deaths, Delayed (1-24 hr) (ICR mice; 27.2 mmol/kg i.v., ICR mice): 0 | Deaths, Immediate (0-1 hr) (ICR mice; 27.2 mmol/kg i.v., ICR mice): 2 | Deaths, Total (ICR mice; 27.2 mmol/kg i.v., ICR mice): 4/4 | Deaths, Immediate (0-1 hr) (ICR mice; 34.0 mmol/kg i.v., ICR mice): 4 | Deaths, Total (ICR mice; 34.0 mmol/kg i.v., ICR mice): 4/4 | body weight gain of surviving mice (ICR mice; 7-day post-injection period, i.v., ICR mice): failed to gain weight | 95% Confidence Limits of LD50 (ICR mice; ICR mice, single i.v., 7 days): 17.4 to 29.0 mmol/kg | LD50 (ICR mice; ICR mice, single i.v., 7 days post injection, modified Behrens-Reed-Meunch method): 22.5 mmol/kg | gross organ abnormality at necropsy (ICR mice; one female dosed with 20.4 mmol/kg i.v.): a "pale" colored liver | gross organ abnormality at necropsy, other mice (ICR mice; other mice at 20.4 mmol/kg or lower, i.v.): No other mice at 20.4 mmol/kg or lower showed similar abnormalities | order of i.v. toxicity (ICR mice; preliminary tests, ICR mice): low order of i.v. toxicity | T1 Relaxation Rate ([1]; 4% HSA/0.9% NaCl): 4400 M⁻¹ s⁻¹ | T2 Relaxation Rate ([1]; 4% HSA/0.9% NaCl): 6380 M⁻¹ s⁻¹ | T1 Relaxation Rate ([1]; H2O (SWFI)): 4690 M⁻¹ s⁻¹ | T2 Relaxation Rate ([1]; H2O (SWFI)): 4810 M⁻¹ s⁻¹

COCCNC(=O)CN(CCN(CC(=O)[O-])CC(=O)NCCOC)CC(=O)[O-].[Mn+2] [Example X, {N,N'-Bis[N-(2-methoxyethyl)carbamoyl-methyl]-ethylenediamine-N,N'-diaceto}manganese(II)]
solubility in water (solubility in water): very soluble in water
